Entries after “also recorded” stand apart in the source; their conditions may differ. Read-outs that look alike come from different tables or passages of the source.
Legend:
[1] = tested on: neutral SMase; conditions: at 5 mM GSH; cited from earlier work
[2] = tested on: Pa-LPS-induced lung injury; assay type: in vivo, mice
[3] = tested on: ZO-2; experiment: Lipid-raft ZO-2 expression by Western blotting in CFBE41o- and CFBE41o-WT-CFTR cells; assay type: cell-based, human
[4] = tested on: NFκB promoter; experiment: NFκB luciferase reporter assay in CFBE41o-wt-CFTR and CFBE41o- cells; assay type: cell-based, human; conditions: CFBE41o-wt-CFTR cells; 10 ng/ml TNFα, 50 μM FB1, 12 hours; p<0.05; only in the presence of cell surface CFTR
Excerpt: The BALF and cell culture supernatants (n=3-5) were quantified in triplicate for mouse IL-6, IL-1β, or human IL-8 using ELISA kits (R&D Systems, or eBioscience, San Diego, Calif.) following the manufacturer's instructions. MPO levels in neutrophil culture supernatant or mouse BALF were similarly quantified using the MPO ELISA kit (Hycult Biotechnology, Uden, The Netherlands). For reporter assays, CFBE41o-WT-CFTR or CFBE41o-cells were transfected with NF-KB firefly luciferase promoter (pGL2) and renilla luciferase (pRLTK) control using Lipofectamine 2000 (Invitrogen). Renilla luciferase was used as an internal control for normalization of DNA and transfection efficiency of reporter constructs. […] Data were normalized with internal renilla luciferase control for each sample, and the changes in reporter activities with CFTR overexpression were calculated.

[5] = tested on: membrane ceramide; experiment: ZO-1/ceramide co-immunostaining and confocal imaging of CFBE41o-WT-CFTR cells; assay type: cell-based, human; conditions: 6 hrs
[6] = tested on: lipid-raft CFTR; experiment: Intratracheal CD treatment of Cftr+/+ mice, lung immunofluorescence staining; assay type: in vivo, C57BL/6 mice; conditions: CD 75 μg/mouse i.t. for 3 days
Description: All animal experiments were carried out in accordance with the Johns Hopkins University (JHU) Animal Care and Use Committee (ACUC) approved protocols. Age-, weight-, and sex-matched (24 wk old), B6-12956-Cftr^−/− (Cftrtm^1Kthc-TgN(^FABPCFTR)) (30, 31) and Cftr^+/+ inbred mice strains (procured from Case Western Reserve University Animal Resource Center, Cleveland, Ohio; n=3-5 for all experiments). The changes in cytokine and inflammatory markers between Cftr^+/+and Cftr^−/− mice were verified by multiple (2, 3) experiments, and representative data are shown. All mice were housed in a controlled environment and pathogen-free conditions. […] Mice were sacrificed 24 h after drug treatment, and the bronchoalveolar lavage fluid (BALF) was collected for cytokine ELISAs. The lungs were fixed in 10% buffered formalin phosphate (Fisher Scientific, Pittsburgh, Pa.), paraffin embedded, and cut into longitudinal sections (5 μm thick) on glass slides for immunostaining. For depletion of membrane-CFTR in murine lungs, 72-h i.t. CD treatment was used, and lung tissues were collected as above. The mice (three to four mice per group, 8 to 10 wk old) were exposed to cigarette smoke (CS) using the TE-2 cigarette smoking machine (Teague Enterprises, Davis, Calif.). […] An average total particulate matter of 150 mg/m^3 was recorded in real time during the smoking protocols. […] The human lung tissue samples from Gold stage I (mild, forced expiratory volume [FEV1]% predicted>80%), Gold stage 11 (moderate, FEV1% predicted=˜50-80%), and Gold stage III-IV (severe/very severe, FEV1% predicted <50%) nontumor COPD (with FEV1/forced vital capacity [FVC] ratio of <70%) and Gold stage 0 (at risk) control subjects (procured from Lung Tissue Research Consortium [Bethesda, Md.], National Heart, Lung and Blood Institute, National Institutes of Health) were used for quantification and localization of indicated proteins by immunostaining All the subjects were stable, and Gold I-IV subjects had emphysema. […]

[7] = tested on: IL-8; experiment: IL-8 secretion ELISA in CFBE41o-WT-CFTR cells; assay type: cell-based, human; conditions: 5 mM CD, 24 hours; p<0.001
[8] = tested on: NFκB; experiment: NFκB immunostaining of CFBE41o-WT-CFTR cells after lipid-raft CFTR depletion; assay type: cell-based, human; conditions: 5 mM CD, 6 hrs, ± 10 ng/ml Pa-LPS
[9] = tested on: lipid-raft Fas and CFTR; experiment: Immunoblotting of lung lipid-raft protein fraction from CD treated and/or sub-chronic CS exposed Cftr+/+ mice; assay type: in vivo; conditions: CD i.t. 2×50 μg
[10] = tested on: chronic-CS induced lung inflammation and emphysema; experiment: Chronic cigarette smoke (24 weeks) induced lung inflammation and emphysema in C57BL/6 mice; assay type: in vivo
Excerpt: Scale: white/black bar-50 μm.

[11] = Cftr+/+ mice, Pa-LPS i.t. 12 h, then drug i.t. 24 h
[12] = Cftr-/- mice, Pa-LPS i.t. 12 h, then drug i.t. 24 h

N[C@@H](CCC(=O)N[C@@H](CS)C(=O)NCC(=O)O)C(=O)O [Glutathione]
inhibition of neutral SMase [1]: greater than 95%

CN(C)CCC=C1c2ccccc2CCc2ccccc21 [AMT, Amitriptyline]
protection against Pa-LPS-induced lung injury ([2]; Cftr+/+ mice, FIG. 4B legend): relatively less protective
Pa-LPS-induced IL-1b secretion (BALF) [2, 11]: unable to rescue
Pa-LPS-induced IL-6 (BALF) [2, 11]: unable to rescue
inflammatory cytokines (BALF) ([2]; Cftr-/- mice, FIG. 4B legend): effectively controls
Pa-LPS-induced IL-1b levels (BALF) [2, 12]: significant decrease
Pa-LPS-induced IL-6 (BALF) [2, 12]: significant decrease

Fumonisin B1 [FB1]
lipid-raft ZO-2 expression ([3]; CFBE41o- cells (no functional CFTR), Pa-LPS 10 ng/ml or FB1 50 μM, 24 h): neither Pa-LPS nor FB1 is able to modulate
lipid-raft ZO-2 expression ([3]; in the presence of WT-CFTR (CFBE41o-WT-CFTR cells)): downregulated
Pa-LPS-induced IL-10 (BALF) ([2]; Cftr+/+ mice, FIG. 4A): significantly decreases
Pa-LPS-induced IL-1b secretion (BALF) [2, 11]: very significant decrease
Pa-LPS-induced IL-6 (BALF) [2, 11]: significantly decreases
reduction in the Pa-LPS-induced IL-6 levels (BALF) ([2]; Cftr+/+ mice, Pa-LPS i.t. 12 h, then drug i.t. 24 h, p<0.05): 2 fold
Pa-LPS-induced IL-1b levels (BALF) [2, 12]: unaltered
Pa-LPS-induced IL-6 (BALF) [2, 12]: decreased; also recorded: modest effect
TNFα mediated NFκB promoter activity [4]: inhibits

methyl-β-cyclodextrin [CD]
ceramide accumulation on the cell surface and lipid rafts ([5]; CD 5 mM): increases
NFκB activity (lung immunofluorescence) [6]: induces
expression of lipid-raft marker (ZO-2) [6]: significant increase
neutrophil chemotaxis (NIMPR14) [6]: induces
IL-8 chemokine levels [7]: significantly induces
CFTR control of NFκB signaling [8]: abrogates its control of NFκB signaling
lipid-raft CFTR levels [9]: decrease
lipid-raft Fas expression [9]: increases

TNFα
CD induced membrane ceramide accumulation ([5]; TNFα 10 ng/ml with CD 5 mM): depletes

CCCCCCCCCC(=O)N[C@H](CN1CCOCC1)[C@H](O)c1ccccc1 [D-PDMP]
CS induced inflammation and emphysema (H&E) ([10]; chronic-CS 24 weeks, 50 μg/mouse): significant decrease
chronic-CS induced LacCer-accumulation (lung immunostaining) ([10]; chronic-CS 24 weeks, 50 μg/mouse, p<0.05): significantly downregulated
alveolar space enlargement (alveolar diameter, morphometric analysis) ([10]; chronic-CS 24 weeks, p=0.0016): significantly controlled
BALF IL-6 levels ([10]; chronic-CS exposed mice, n=3, p=0.009): rescued to basal levels
chronic-CS induced macrophage (F4/80-positive cells) infiltration in BALF ([10]; flow cytometry, p<0.01): significantly controls
